US8598175B2, “Heteroarylamide pyrimidone derivatives” (Sanofi, priority 2007, dated 2013)
pIC50: −log10 of the molar value.

Key:
[1] = biological target: GSK3β (Homo sapiens, UniProt P49841); assay: Inhibitory activity against GSK3β (33P-ATP phosphorylation of prephosphorylated GS1 peptide, two protocols); type: biochemical; settings: first or second protocol not specified
Protocol: Inhibitory Activity of the Medicament of the Present Invention Against GSK3β
Two different protocols can be used.
In a first protocol: 7.5 μM of prephosphorylated GS1 peptide and 10 μM ATP (containing 300,000 cpm of ^33P-ATP) were incubated in 25 mM Tris-HCl, pH 7.5, 0.6 mM DTT, 6 mM MgCl2, 0.6 mM EGTA, 0.05 mg/ml BSA buffer for 1 hour at room temperature in the presence of GSK3beta (total reaction volume: 100 microliters).
In a second protocol: 4.1 μM of prephosphorylated GS1 peptide and 42 μM ATP (containing 260,000 cpm ^33P-ATP) were incubated in 80 mM Mes-NaOH, pH 6.5, 1 mM Mg acetate, 0.5 mM EGTA, 5 mM 2-mercaptoethanol, 0.02% Tween 20, 10% glycerol buffer for 2 hours at room temperature in the presence of GSK3beta.
Inhibitors were solubilized in DMSO (final solvent concentration in the reaction medium, 1%).
The reaction was stopped with 100 microliters of a solution made of 25 g polyphosphoric acid (85% P2O5), 126 ml 85% H3PO4, […] to 500 ml and then diluted to 1:100 before use. An aliquot of the reaction mixture was then transferred to Whatman P81 cation exchange filters and rinsed with the solution described above. Incorporated ^33P radioactivity was determined by liquid scintillation spectrometry.
The phosphorylated GS-1 peptide had the following sequence: NH2-[…](P)EDEE-COOH. SEQ ID NO: 1 (Woodgett, J. R. (1989) Analytical Biochemistry 180, 237-241.

GSK3β, sequence (P49841 whole entry): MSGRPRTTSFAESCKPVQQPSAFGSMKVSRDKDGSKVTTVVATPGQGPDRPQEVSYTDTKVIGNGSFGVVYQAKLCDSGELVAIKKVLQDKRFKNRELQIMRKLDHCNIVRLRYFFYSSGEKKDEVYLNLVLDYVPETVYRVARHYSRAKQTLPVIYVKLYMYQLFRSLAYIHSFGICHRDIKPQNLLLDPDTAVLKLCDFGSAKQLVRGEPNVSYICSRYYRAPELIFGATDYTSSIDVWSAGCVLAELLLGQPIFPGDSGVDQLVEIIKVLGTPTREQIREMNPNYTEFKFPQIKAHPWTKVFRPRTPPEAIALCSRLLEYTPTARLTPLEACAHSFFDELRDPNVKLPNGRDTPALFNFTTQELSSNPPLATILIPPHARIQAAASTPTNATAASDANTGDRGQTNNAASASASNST

Cn1c(CNC(=O)c2ccc3ncccc3n2)nc(-c2ccncn2)cc1=O [compound 4, [1,5]Naphthyridine-2-carboxylic acid (1-methyl-6-oxo-1,6-dihydro-[4,4]bipyrimidinyl-2-ylmethyl)-amide]
melting point: 317 to 319 °C | pIC50 [1]: 8.30
